Data as given in patent US20230134843A1, “TREATMENT OF STEM CELL DEFICIENCY” (OSPEDALE SAN RAFFAELE S.R.L., priority 2020, published 2023).
“Also recorded” adds a separate entry of the source.

Target: T1, NK1R (Mus musculus, UniProt P30548)
T1 construct: NK1R is expressed by both corneal epithelial and stem cell-like cells; from tissue; host or cells: cornea / ocular surface of live C57BL6/N mice (topical dosing in vivo)
Experiment: Epithelial wound closure by corneal fluorescein staining, stem cell deficiency model (Example 2)
Assay type: in vivo, mice
From the text: Eight-week-old male mice C57BL6/N (Charles River, Calco, Italy) (WT mice, n=18) and Tac1-deficient B6.Cg-Tac1tm1Bbm/J (Jackson Laboratories, Bar Harbor, Me., USA) (TAC1-KO mice, n=18) were used in all experiments. TAC1-KO mice are homozygous null for the Tac1 gene. […] The corneal thickness and transparency as well as the corneal nerve length are similar to C57BL/6 mice [Barbariga M, Rabiolo A, Fonteyne P, Bignami F, Rama P, Ferrari G. The effect of aging on nerve morphology and substance P expression in mouse and human corneas. Investig Ophthalmol Vis Sci 2018; 59:5329-35. https://doi.org/10.1167/iovs.18-24707.]. […]
Every day after disepithelization, in vivo corneal photographs were taken using a digital camera (EOS 30D; Canon, Tokyo, Japan) attached to a slit-lamp microscope (Photoslitmap 40 SL-P; Zeiss, Oberkochen, Germany) to assess corneal condition. Corneal opacity was evaluated using a grading score (from 0-4; 0=completely clear, 4=completely opaque) previously described [Yoeruek E, Deuter C, Gieselmann S, Saygili O, Spitzer M S, Tatar O, et al. Long-term visual acuity and its predictors after cataract surgery in patients with uveitis. […] The percentage of green fluorescent area on the total corneal area was evaluated by analyzing images by Image J software (National Institutes of Health, Bethesda, Md., USA).

T1 sequence (P30548 whole entry): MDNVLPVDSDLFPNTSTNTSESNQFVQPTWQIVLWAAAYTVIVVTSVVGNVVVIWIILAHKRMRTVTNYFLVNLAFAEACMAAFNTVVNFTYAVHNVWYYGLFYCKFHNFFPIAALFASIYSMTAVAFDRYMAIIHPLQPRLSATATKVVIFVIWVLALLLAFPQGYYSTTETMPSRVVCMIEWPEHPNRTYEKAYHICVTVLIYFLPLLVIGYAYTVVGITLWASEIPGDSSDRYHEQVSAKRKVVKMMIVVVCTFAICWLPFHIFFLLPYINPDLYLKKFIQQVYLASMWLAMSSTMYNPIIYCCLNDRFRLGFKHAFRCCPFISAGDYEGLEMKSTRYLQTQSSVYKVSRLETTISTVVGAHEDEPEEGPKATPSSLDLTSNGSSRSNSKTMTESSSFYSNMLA

In the case of `C[C@@H](O[C@H]1OCCN(Cc2nc(=O)n(P(=O)(O)O)[nH]2)[C@H]1c1ccc(F)cc1)c1cc(C(F)(F)F)cc(C(F)(F)F)c1` [Fosaprepitant, [3-{[(2R,3S)-2-[(1R)-1-[3,5-bis(trifluoromethyl)phenyl]ethoxy]-3-(4-fluorophenyl)morpholin-4-yl]methyl}-5-oxo-2H-1,2,4-triazol-1-yl]phosphonic acid], the “wound closure compared to WT” value (Fosaprepitant 0.1 mg/mL (FOSA 0.1) topically 4 times/day for 16 days) is reported as “did not show any improvement; also recorded: no improvement” and the “wound closure rate compared to WT” value (Fosaprepitant 1 mg/mL (FOSA 1) topically 4 times/day for 16 days, from day five, p<0.05) is reported as “significant improvement; also recorded: significant faster epithelial wound closure”.
